Tested on: 252836-082-R-J2-PDC tumor spheroids, viability
Experiment: Anticancer human tumor 252836-082-R-J2-PDC patient-derived head and neck squamous cell carcinoma cell line growth inhibition [PI3K]
Settings: spheroids with HUVEC and MSC; for viability, T/C: stronger effect = lower value; active means viability on the fitted dose curve at most 10% of control; inactive means the rest
How it was run: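 Viability of mixed-cell spheroids was determined after exposure to pairwise combinations, one partner being inavolisib, alpelisib, duvelisib or copanlisib. Highest tested concentration matched clinical Cmax where known and 10 microM where not, descending in half-log steps.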

[1] = curve of first compound, second compound 0.0316 µM
[2] = curve of first compound, second compound 0.1 µM
[3] = curve of first compound, second compound 0.316 µM
[4] = curve of first compound, second compound 1 µM
[5] = second compound 0.0316 µM, first compound 0.0316 µM
[6] = second compound 0.0316 µM, first compound 0.1 µM
[7] = second compound 0.1 µM, first compound 0.0316 µM
[8] = second compound 0.1 µM, first compound 0.1 µM
[9] = second compound 0.316 µM, first compound 0.0316 µM
[10] = second compound 0.316 µM, first compound 0.1 µM
[11] = second compound 1 µM, first compound 0.0316 µM
[12] = second compound 1 µM, first compound 0.1 µM
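Further: spheroids exposed to agents for seven days before readout.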
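Wherever viability, T/C is given: percent of vehicle DMSO control viability so 100% = untreated growth.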

CCCS(=O)(=O)Nc1ccc(F)c(C(=O)c2c[nH]c3ncc(-c4ccc(Cl)cc4)cc23)c1F + CC(Nc1ncnc2nc[nH]c12)c1cc2cccc(Cl)c2c(=O)n1-c1ccccc1
4.83 µM: IC50 (curve of first compound, second compound 3.16 µM)
5.06 µM: IC50 [1]
inactive: viability, T/C [5] 101% | viability, T/C [6] 93.7% | viability, T/C (second compound 0.0316 µM, first compound 0.316 µM) 109% | viability, T/C (second compound 0.0316 µM, first compound 1 µM) 92.9% | viability, T/C (second compound 0.0316 µM, first compound 3.16 µM) 78.7% | viability, T/C [7] 99.6% | viability, T/C [8] 92.9% | viability, T/C (second compound 0.1 µM, first compound 0.316 µM) 109% | viability, T/C (second compound 0.1 µM, first compound 1 µM) 91.9% | viability, T/C (second compound 0.1 µM, first compound 3.16 µM) 88.6% | viability, T/C [9] 98.8% | viability, T/C [10] 84% | viability, T/C (second compound 0.316 µM, first compound 0.316 µM) 82.7% | viability, T/C (second compound 0.316 µM, first compound 1 µM) 90.4% | viability, T/C (second compound 0.316 µM, first compound 3.16 µM) 83.1% | viability, T/C [11] 89.2% | viability, T/C [12] 90.2% | viability, T/C (second compound 1 µM, first compound 0.316 µM) 95.6% | viability, T/C (second compound 1 µM, first compound 1 µM) 104% | viability, T/C (second compound 1 µM, first compound 3.16 µM) 76.5% | viability, T/C (second compound 3.16 µM, first compound 0.0316 µM) 86.7% | viability, T/C (second compound 3.16 µM, first compound 0.1 µM) 87.5% | viability, T/C (second compound 3.16 µM, first compound 0.316 µM) 88.4% | viability, T/C (second compound 3.16 µM, first compound 1 µM) 91.5% | viability, T/C (second compound 3.16 µM, first compound 3.16 µM) 72.7% | viability, T/C (second compound 3.16 µM, first compound 10 µM) 11.2% | viability, T/C (second compound 10 µM, first compound 0.0316 µM) 71.7% | viability, T/C (second compound 10 µM, first compound 0.1 µM) 73.2% | viability, T/C (second compound 10 µM, first compound 0.316 µM) 68.4% | viability, T/C (second compound 10 µM, first compound 1 µM) 65% | viability, T/C (second compound 10 µM, first compound 3.16 µM) 62.3% | viability, T/C (second compound 10 µM, first compound 10 µM) 10.3%
4.9 µM: IC50 [4]
4.09 µM: IC50 (curve of first compound, second compound 10 µM)
active: viability, T/C (second compound 0.0316 µM, first compound 10 µM) 8.82% | viability, T/C (second compound 0.1 µM, first compound 10 µM) 8.07% | viability, T/C (second compound 0.316 µM, first compound 10 µM) 9.77% | viability, T/C (second compound 1 µM, first compound 10 µM) 7.1%
5.32 µM: IC50 [3]
5.5 µM: IC50 [2]

Cn1ncnc1[C@H]1c2n[nH]c(=O)c3cc(F)cc(c23)N[C@@H]1c1ccc(F)cc1
> 0.1 µM: IC50 (curve of compound)
inactive: viability, T/C (compound 0.000316 µM) 97% [middle of 4 runs] | viability, T/C (compound 0.001 µM) 95.9% [middle of 4 runs] | viability, T/C (compound 0.00316 µM) 89.2% [middle of 4 runs] | viability, T/C (compound 0.01 µM) 93.7% [middle of 4 runs] | viability, T/C (compound 0.0316 µM) 69.4% [middle of 4 runs] | viability, T/C (compound 0.1 µM) 55.5% [middle of 4 runs]

CC(=O)c1c(C)c2cnc(Nc3ccc(N4CCNCC4)cn3)nc2n(C2CCCC2)c1=O + COc1c(OCCCN2CCOCC2)ccc2c3n(c(=NC(=O)c4cnc(N)nc4)nc12)CCN3
inactive: viability, T/C (second compound 0.00316 µM, first compound 0.000316 µM) 95% | viability, T/C (second compound 0.00316 µM, first compound 0.001 µM) 93.1% | viability, T/C (second compound 0.00316 µM, first compound 0.00316 µM) 85.6% | viability, T/C (second compound 0.00316 µM, first compound 0.01 µM) 96.3% | viability, T/C (second compound 0.00316 µM, first compound 0.0316 µM) 87.8% | viability, T/C (second compound 0.00316 µM, first compound 0.1 µM) 99% | viability, T/C (second compound 0.01 µM, first compound 0.000316 µM) 84.7% | viability, T/C (second compound 0.01 µM, first compound 0.001 µM) 81.4% | viability, T/C (second compound 0.01 µM, first compound 0.00316 µM) 78.5% | viability, T/C (second compound 0.01 µM, first compound 0.01 µM) 84.3% | viability, T/C (second compound 0.01 µM, first compound 0.0316 µM) 81.1% | viability, T/C (second compound 0.01 µM, first compound 0.1 µM) 83.7% | viability, T/C (second compound 0.0316 µM, first compound 0.000316 µM) 69.5% | viability, T/C (second compound 0.0316 µM, first compound 0.001 µM) 60.9% | viability, T/C (second compound 0.0316 µM, first compound 0.00316 µM) 66.9% | viability, T/C (second compound 0.0316 µM, first compound 0.01 µM) 56.5% | viability, T/C [5] 64% | viability, T/C [6] 62.6% | viability, T/C (second compound 0.1 µM, first compound 0.000316 µM) 37.1% | viability, T/C (second compound 0.1 µM, first compound 0.001 µM) 41.2% | viability, T/C (second compound 0.1 µM, first compound 0.00316 µM) 37.8% | viability, T/C (second compound 0.1 µM, first compound 0.01 µM) 45.5% | viability, T/C [7] 41.7% | viability, T/C [8] 37.5% | viability, T/C (second compound 0.316 µM, first compound 0.000316 µM) 18.2% | viability, T/C (second compound 0.316 µM, first compound 0.001 µM) 21.1% | viability, T/C (second compound 0.316 µM, first compound 0.00316 µM) 20.6% | viability, T/C (second compound 0.316 µM, first compound 0.01 µM) 18.7% | viability, T/C [9] 21.8% | viability, T/C [10] 16.6%
active: viability, T/C (second compound 1 µM, first compound 0.000316 µM) 4.69% | viability, T/C (second compound 1 µM, first compound 0.001 µM) 5.36% | viability, T/C (second compound 1 µM, first compound 0.00316 µM) 5.54% | viability, T/C (second compound 1 µM, first compound 0.01 µM) 5.58% | viability, T/C [11] 6.27% | viability, T/C [12] 4.95%
< 0.000316 µM: IC50 [2] | IC50 [3] | IC50 [4]
> 0.1 µM: IC50 (curve of first compound, second compound 0.00316 µM) | IC50 (curve of first compound, second compound 0.01 µM) | IC50 [1]

CC(C)n1nc(-c2ccc3oc(N)nc3c2)c2c(N)ncnc21
inactive: viability, T/C (compound 0.000316 µM) 93.7% [middle of 4 runs] | viability, T/C (compound 0.001 µM) 91.8% [middle of 4 runs] | viability, T/C (compound 0.00316 µM) 87.4% [middle of 4 runs] | viability, T/C (compound 0.01 µM) 80.9% [middle of 4 runs] | viability, T/C (compound 0.0316 µM) 53.5% [middle of 4 runs] | viability, T/C (compound 0.1 µM) 23% [middle of 4 runs]
36.6 nM [middle of 4 runs]: IC50 (curve of compound)

C=CC(=O)N1CCN(c2nc(=O)n(-c3c(C)ccnc3C(C)C)c3nc(-c4c(O)cccc4F)c(F)cc23)C(C)C1 (configuration not stated)
inactive: viability, T/C (compound 0.0316 µM) 98% [middle of 4 runs] | viability, T/C (compound 0.1 µM) 95.6% [middle of 4 runs] | viability, T/C (compound 10 µM) 99.2% [middle of 4 runs]
> 10 µM: IC50 (curve of compound)

— PubChem BioAssay AID1963985 (Molecular Pharmacology Branch, DTP, NCI, 2024)
